Results published in US3996228A, “Pyrimidinoaminoethyl ergoline derivatives” (Societa' Farmaceutici Italia S.p.A., priority 1973, dated 1976).
Converted amounts (≈) assume the structure as drawn. Like-named read-outs stand apart in the source and are kept apart here.

How the values were obtained:
[1] = LD50 (acute toxicity); conditions: rat, in vivo, rats
Procedure: (§1) The compounds of the present invention have a high and prolonged adrenolytic activity and a low toxicity and are therefore useful in therapy. This adrenolytic activity was tested "in vitro" on isolated guinea pig seminal vescicle suspended in physiological solution and "in vivo" on the rat. Table 1 reports the values of concentrations, in γ/ml, which are able to produce a 50% inhibition (IC50) of the spasmogen effect caused by adrenaline and the doses in mg/Kg (ED50) able to reduce by 50% the lethal effects caused by adrenaline after oral (os) and intravenous (i.v.) administration of the compounds in question. Table 1 also reports the LD50 values, both per os and i.v. in rats.

[2] = system: isolated guinea pig seminal vescicle; assay: adrenolytic activity in vitro: inhibition of the spasmogen effect caused by adrenaline; assay type: cell-based; conditions: Cavia porcellus, 50% inhibition of spasmogen effect caused by adrenaline
Procedure: as §1

[3] = system: lethal effects caused by adrenaline; assay: adrenolytic activity in vivo: reduction of the lethal effects caused by adrenaline; conditions: rat, 50% reduction of lethal effects caused by adrenaline
Procedure: as §1

[4] = analgesic activity, hot plate test; assay type: in vivo; conditions: for Analgesic Activity Hot Plate, relative to D-propoxyphene: D-propoxyphene = 1
Procedure: (§2) The analgesic activity was evaluated by means of the hot plate test and the writhing test, the data being given in comparison with morphine and D-propoxyphene.
(§3) In the hot plate and writhing tests, the comparison compounds morphine and D-propoxyphene have been arbitrarily assigned the value of 1.

[5] = system: hypertensive rat; assay: hypotensive activity on the hypertensive rat; assay type: in vivo; conditions: po, per os, dose which causes a pressure drop of about 30-40 mmHg, read-out: Hypotensive Activity active dose
Procedure: The hypotensive activity was tested on the hypertensive rat; the reported data being the dose expressed in mg/Kg per os, which causes a pressure drop of about 30-40 mmHg.

[6] = analgesic activity, writhing test; assay type: in vivo
Procedure: as §2, §3

[7] = iv, i.v., read-out: Adrenolytic Activity "in vivo" ED50 i.v.
[8] = po, per os, read-out: Adrenolytic Activity "in vivo" ED50 os
[9] = morphine = 1, listed as 1,6-dimethyl-8β-[5-amino-2-pyrimidino-aminoethyl]-10α-ergoline

Row | SMILES | LD50 ([1]; po, per os, read-out: LD50 os) [mg/kg] | IC50 [2] [mg/L] | ED50 [3, 7] [mg/kg] | ED50 [3, 8] [mg/kg] | LD50 ([1]; iv, i.v., read-out: LD50 i.v.) [mg/kg] | Analgesic Activity Hot Plate, relative to D-propoxyphene [4] | Analgesic Activity Hot Plate, relative to morphine ([4]; morphine = 1) | ED (30-40 mmHg pressure drop) [5] [mg/kg] | Analgesic Activity Writhing, relative to D-propoxyphene ([6]; D-propoxyphene = 1) | Analgesic Activity Writhing, relative to morphine ([6]; morphine = 1) | Analgesic Activity Writhing, relative to morphine [6, 9] | Analgesic Activity Hot Plate, relative to morphine [4, 9]
1 | CO[C@]12C[C@@H](CCNc3ncc([N+](=O)[O-])cn3)CN(C)[C@@H]1Cc1cn(C)c3cccc2c13 [1,6-Dimethyl-8β-[5-nitro-2-pyrimidinoaminoethyl]-10α-methoxyergoline] | 150 | 0.5 (≈ 1.15 µM) | 0.25 | 0.42 |  |  |  |  |  |  |  | 
2 | CO[C@]12C[C@@H](CCNc3ncc(Br)cn3)CN(C)[C@@H]1Cc1cn(C)c3cccc2c13 [1,6-dimethyl-8β-[5-bromo-2-pyrimidinoaminoethyl]-10α-methoxyergoline] | 200 | 0.01 (≈ 0.0213 µM) | 0.65 | > 1 |  |  |  |  |  |  |  | 
3 | Cc1cnc(NCC[C@@H]2C[C@@H]3c4cccc5c4c(cn5C)C[C@H]3N(C)C2)nc1 [1,6-Dimethyl-8β-[5-methyl-2-pyrimidinoaminoethyl]-10α-ergoline] | 130 | 0.5 (≈ 1.33 µM) | 0.07 | 0.5 | 19 |  |  |  |  |  |  | 
4 | CN1C[C@H](CCNc2ncccn2)C[C@@H]2c3cccc4c3c(cn4C)C[C@H]21 [1,6-dimethyl-8β-[2-pyrimidinoaminoethyl]-10α-ergoline] | 100 | 0.001 (≈ 0.00277 µM) | 0.2 | 0.1 | 18 |  |  |  |  |  |  | 
5 | COc1cnc(NCC[C@@H]2C[C@@H]3c4cccc5c4c(cn5C)C[C@H]3N(C)C2)nc1 [1,6-dimethyl-8β-[5-methoxy-2-pyrimidinoaminoethyl]-10α-ergoline] |  |  |  |  |  | 2 | 0.5 | 10 |  |  |  | 
6 | CN1C[C@H](CCNc2ncc(N)cn2)C[C@@H]2c3cccc4c3c(cn4C)C[C@H]21 [1,6-dimethyl-8β-[5-amino-2-pyrimidinoaminoethyl]-10α-ergoline] |  |  |  |  |  | 5 | 1 | 10 | 10 | 1 | same activity as morphine | same activity as morphine
